Experimental data: paper PMC7516017, “Organoids to Study Intestinal Nutrient Transport, Drug Uptake and Metabolism – Update to the Human Model and Expansion of Applications” (Frontiers in Bioengineering and Biotechnology, 2020)
Read-outs that look alike come from different tables or passages of the source.

Experiments:
[1] = humans; ref Becker et al., 2015; cited from earlier work
Description: (§1) As mentioned before, peptide transporters also play a role in drug uptake, including peptidomimetics. […] For example, peptidomimetics have been designed for cancer therapy, e.g., to induce apoptosis ([Walensky et al., 2004]), sensitize cancer cells to chemotherapeu ...

[2] = system: human organoids derived from different regions of the small intestine; assay: Uptake of radiolabeled glucose with transporter inhibitors; format: cell-based; conditions: 14C-glucose, 5.8mM D-glucose; 1mM inhibitor added 10min prior; intact organoids in matrigel, HEPES-saline buffer pH 7.4, 30 min 37 °C; liquid scintillation; n = 5–6; Figure 2B
Experimental: (§2) Subsequently, medium was changed to CCM for 5 days. […]
(§3) 1.6. Glucose and Fructose transport studies
(§4) Grenoble, France) and transferred in tubes. After repeated (2x) centrifugation (200g, 5min) and […]
Transporter ac tivities were assessed using (non- […]
(§5) from Sigma) and 1mM Rubusoside (VWR, Avantor).
(§6) Intestinal organoids – Transport & Metabolism […]
(§7) addition of fructose. Following incubation, substrate/inhibitor solutions were removed from intact […]
(§8) centrifuged (300g, 10min). For “broken up” organoids, dissociated organoids were centrifuged (300g, 3min) and washed three times with PBS. During these steps, PBS for washing contained glucose and […]
(§9) 3 ml of Bioscint® Scintillation […]
(§10) organoids was quantified using a liquid scintillation counter (PerkinElmer). Residual amounts of all […]
(§11) in dissolved organoids derived from the ileum. […]
(§12) Calculations and imaging data […]
(§13) intestinal Wt organoids or in human duodenal organoids.

[3] = system: Caco-2; conditions: cited from earlier work
Description: as §1

[4] = target: T1, Pept1 (Mus musculus, UniProt Q9JIP7); assay: Competition assay using radiolabeled Gly-Sar, murine small intestinal organoids (wild type and Pept1 knockout); format: in vitro ADME; conditions: 13mM cyclic hexapeptide (solubilized in DMSO) versus 5mM Gly-Sar (14C tracer 1mM); organoids from wild type and Pept1-deficient mice; HEPES-saline buffer pH 6.5, 37 °C; liquid scintillation; n = 5–6; Figure 2G
T1 construct: endogenous in cells; host or cells: murine small intestinal organoids (C57BL/6 wild type; Pept1-/- organoids as control)
T1 sequence (Q9JIP7 1-709): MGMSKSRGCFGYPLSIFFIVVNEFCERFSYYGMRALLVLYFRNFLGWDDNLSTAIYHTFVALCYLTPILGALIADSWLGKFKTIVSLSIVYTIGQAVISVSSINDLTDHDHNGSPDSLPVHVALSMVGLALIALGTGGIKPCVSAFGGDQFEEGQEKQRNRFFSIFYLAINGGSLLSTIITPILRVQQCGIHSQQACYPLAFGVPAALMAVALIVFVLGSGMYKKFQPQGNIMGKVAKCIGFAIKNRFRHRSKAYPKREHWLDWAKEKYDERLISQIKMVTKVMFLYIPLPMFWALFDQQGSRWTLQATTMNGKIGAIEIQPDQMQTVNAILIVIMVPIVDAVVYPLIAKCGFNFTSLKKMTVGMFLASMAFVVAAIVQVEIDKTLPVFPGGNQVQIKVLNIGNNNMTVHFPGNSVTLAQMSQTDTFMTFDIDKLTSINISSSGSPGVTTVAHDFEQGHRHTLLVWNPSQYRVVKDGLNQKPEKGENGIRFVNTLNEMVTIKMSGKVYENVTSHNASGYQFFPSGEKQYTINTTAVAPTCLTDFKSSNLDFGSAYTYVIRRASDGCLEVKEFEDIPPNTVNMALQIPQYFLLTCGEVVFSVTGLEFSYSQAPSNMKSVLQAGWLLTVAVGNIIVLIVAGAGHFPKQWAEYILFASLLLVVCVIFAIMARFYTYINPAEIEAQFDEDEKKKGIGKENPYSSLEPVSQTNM
Experimental: as §6, §7, §8, §9, §10
in dissolved organoids derived from the ileum.
(§14) 1.7. Peptide and drug transport studies
The protocol for peptide and
(American Radiolabeled Chemicals). Final substrate concentrations used were: 5mM Gly-Sar […]
Weinmüller and Horst Kessler, and solubilized in DMSO. Peptide transporter studies were performed […]
(§15) 1.8. Imaging of intracellular acidification
(§16) 100µM Amilorid, and 50µM S1611 (Sanofi Aventis). Image series were captured using a Leica […]
as §12, §13

[5] = target: T2, PEPT1 (Homo sapiens, UniProt P46059); assay: Competition assay using radiolabeled Gly-Sar, human duodenal organoids; conditions: HEPES-saline buffer pH 6.5, 37 °C, liquid scintillation, n = 5–6
T2 sequence (P46059 1-708): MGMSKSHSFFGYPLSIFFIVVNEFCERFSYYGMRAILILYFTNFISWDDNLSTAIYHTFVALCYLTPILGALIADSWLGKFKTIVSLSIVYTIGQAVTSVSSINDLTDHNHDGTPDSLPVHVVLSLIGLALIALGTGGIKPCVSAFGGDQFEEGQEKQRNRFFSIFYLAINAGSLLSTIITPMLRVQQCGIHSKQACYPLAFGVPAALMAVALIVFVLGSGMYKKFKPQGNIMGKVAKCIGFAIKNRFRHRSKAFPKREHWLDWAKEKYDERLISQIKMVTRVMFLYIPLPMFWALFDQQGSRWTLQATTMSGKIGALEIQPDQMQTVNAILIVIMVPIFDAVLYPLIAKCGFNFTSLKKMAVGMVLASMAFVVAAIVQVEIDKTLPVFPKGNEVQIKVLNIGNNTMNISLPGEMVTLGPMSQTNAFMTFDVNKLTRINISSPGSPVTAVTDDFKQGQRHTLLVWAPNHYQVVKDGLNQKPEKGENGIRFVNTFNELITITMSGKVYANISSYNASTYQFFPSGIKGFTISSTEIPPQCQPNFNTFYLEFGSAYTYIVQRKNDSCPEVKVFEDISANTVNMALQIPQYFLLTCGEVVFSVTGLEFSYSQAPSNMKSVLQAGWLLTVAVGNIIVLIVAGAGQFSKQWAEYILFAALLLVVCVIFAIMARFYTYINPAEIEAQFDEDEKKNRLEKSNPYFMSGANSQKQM
Experimental: Intestinal organoids – Transport & Metabolism fructose uptake assay. Inhibitors were added 10min prior to addition of glucose and 30min prior to addition of fructose. Following incubation, substrate/inhibitor solutions were removed from intact organoids embedded in matrigel and matrigel droplets were washed three times with PBS.
Subsequently, matrigel was dissolved by addition of cold PBS and organoids were resuspended and centrifuged (300g, 10min). For “broken up” organoids, dissociated organoids were centrifuged (300g, 3min) and washed three times with PBS. During these steps, PBS for washing contained glucose and fructose, respectively, to avoid excessive transport of substrates out of the cells. Organoid pellets were resuspended in a lysis buffer containing 150mM NaCl, 50 mM Tris-HCl, 1% Igepal CA-630, 0.5% DCA and a protease inhibitor mix, and incubated for 20min on ice. 3 ml of Bioscint® Scintillation solution (National Diagnostics) were added to the cell lysate and radiolabeled substrate taken up by organoids was quantified using a liquid scintillation counter (PerkinElmer). […]
1.7. […]
Transport activity was assessed by competitive inhibition of the uptake of radiolabeled dipeptide glycyl-sarcosin (Gly-Sar), a hydrolysis-resistant model substrate of Pept1. […]
were assessed using (non-labeled) substrates (Gly-Sar) and 14C-radiolabeled substrate tracers (American Radiolabeled Chemicals). […]

[6] = system: human duodenal organoids; assay: Live-cell imaging of intracellular acidification (BCECF-AM), human organoids; format: cell-based; conditions: 40µM CCCP; for intracellular acidification: BCECF-AM 1μM, ratio F(λex490nm)/F(λex450nm), 50mM Gly-Sar, 50mM Gly-Gly, 5mM Cefadroxil, 50mM glucose, 50mM fructose as negative controls, minimum 6 experiments, representative courses
Experimental: as §14
For peptide and drug transport studies, human organoids were cultivated for 7-9 days after passaging. […]
as §15
For live-cell imaging of intracellular acidification, organoids were incubated with 1μM BCECF-AM (Life Technologies) in HEPES-saline buffer containing 0.01% pluronic F127, 375μM eserine and 2mM […]
substances used were: 50mM Gly-Sar, 50mM Gly-Gly, 5mM Cefadroxil, 40µM CCCP (Sigma), 100µM Amilorid, and 50µM S1611 (Sanofi Aventis). Image series were captured using a Leica […]
and the fluorescence ratio F(λex490nm)/ F(λex450nm) was calculated. Calculations and imaging data analyses were performed using the Leica Application Suite Advanced Fluorescence software. All imaging experiments were performed minimum 6 times and representative time courses are depicted in the manuscript. Imaging of intracellular acidification was performed as indicated in murine small intestinal Wt organoids or in human duodenal organoids.

[7] = system: human duodenal organoids; assay: Uptake of radiolabeled fructose with inhibitors/competitor; format: cell-based; conditions: 14C-fructose, 2.1mM D-fructose; 1mM Phloretin or Rubusoside or 2.1mM D-glucose as competitor; inhibitors added 30min prior; dissolved (broken up) organoids, 45 min 37 °C, pH 7.4; liquid scintillation; n = 5–6
Experimental: as §2, §3, §4
indicated substrate/inhibitor for 45 min at 37 °C. Transporter ac tivities were assessed using (non- […]
as §5, §6, §7, §8, §9, §10, §11, §12, §13

[8] = system: sodium-proton exchangers (NHEs); assay: Live-cell imaging of intracellular pH after Gly-Sar with NHE inhibitors; format: cell-based, mouse; conditions: BCECF-AM, murine small intestinal organoids, 50mM Gly-Sar, 100µM Amilorid or 50µM S1611
Experimental: as §6, §7
centrifuged (300g, 10min). For “broken up” organoids, dissociated organoids were centrifuged (300g, 3min) and washed three times with PBS. […]
as §15, §16, §12, §13

Cilengitide
half-life of excretion [1]: 4 h | metabolic stability [1]: completely stable

O=C(CCc1ccc(O)cc1)c1c(O)cc(O)cc1O[C@@H]1O[C@H](CO)[C@@H](O)[C@H](O)[C@H]1O [phloridzin]
effect on glucose uptake [2]: blunted glucose uptake

C[C@@H]1NC(=O)[C@H](CC(=O)O)NC(=O)CNC(=O)[C@H](CCCNC(=N)N)NC(=O)[C@@H](C)N(C)C(=O)[C@H](C)N(C)C1=O [P2]
permeability in Caco-2 assay ([3]; ref Weinmuller et al., 2017): lacked permeability | peptide transporter-mediated uptake judged by competitive inhibition of radiolabeled Gly-Sar uptake [4]: actively transported independently of Pept1

C[C@@H]1NC(=O)[C@H](C)NC(=O)[C@@H](C)N(C)C(=O)[C@H](C)N(C)C(=O)[C@H](C)NC(=O)[C@H](C)NC1=O [P3]
permeability in Caco-2 assay ([3]; library of N-methylated alanine peptides, ref Ovadia et al., 2011): highly permeable | peptide transporter-mediated uptake judged by competitive inhibition of radiolabeled Gly-Sar uptake [4]: no signs of peptide transporter-mediated uptake | competitive inhibition of radiolabeled Gly-Sar uptake ([5]; 13mM cyclic hexapeptide (solubilized in DMSO) versus 5mM Gly-Sar (14C tracer 1mM), human duodenal organoids, Figure 2H): significantly reduce radiolabeled Gly-Sar uptake

O=C(CO)[C@@H](O)[C@H](O)[C@H](O)CO [fructose, D-fructose]
intracellular acidification [6]: neither glucose nor fructose (used as negative controls) led to an intracellular acidification

glycyl-glycine [Gly-Gly]
intracellular acidification [6]: intracellular acidification was demonstrated | competitive inhibition of radiolabeled Gly-Sar uptake ([5]; 5mM Gly-Gly versus 5mM Gly-Sar (14C tracer 1mM), intact and broken up human duodenal organoids): significant reduction of Gly-Sar uptake in both approaches

OC[C@H]1OC(O)[C@H](O)[C@@H](O)[C@@H]1O (stereo partly drawn) [glucose]
effect on fructose transport [7]: diminished | intracellular acidification [6]: neither glucose nor fructose (used as negative controls) led to an intracellular acidification

CC1=C(C(=O)O)N2C(=O)[C@@H](NC(=O)[C@H](N)c3ccc(O)cc3)[C@H]2SC1 [cefadroxil]
intracellular acidification [6]: intracellular acidification was demonstrated

carbonyl cyanide m-chlorophenyl hydrazine [CCCP]
intracellular acidification [6]: intracellular acidification was demonstrated | intracellular pH on stimulation subsequent to Gly-Sar, Gly-Gly and cefadroxil ([6]; BCECF-AM, human duodenal organoids, Supplementary Figure 3A): additional decline in intracellular pH

O=C(CCc1ccc(O)cc1)c1c(O)cc(O)cc1O [phloretin]
effect on fructose transport [7]: diminished | effect on glucose uptake [2]: blunted glucose uptake, which was more pronounced

N=C(N)NC(=O)c1nc(Cl)c(N)nc1N [Amiloride]
recovery of intracellular pH following exposure to Gly-Sar [8]: prevented the recovery of intracellular pH to basal levels | course of intracellular pH in the observed time span after Gly-Sar ([8]; Figures 3G,H): continuous influx of protons

glycyl-sarcosin [Gly-Sar]
intracellular acidification [6]: intracellular acidification was demonstrated
